Reference: paper PMC10013768, “The efficacy of anti‐proteolytic peptide R7I in intestinal inflammation, function, microbiota, and metabolites by multi‐omics analysis in murine bacterial enteritis” (Bioengineering & Translational Medicine, 2022)
Values after ≈ are worked out from the molar mass of the structure shown. Ends that are not written are not given here.

Experiments:
[1] = earlier research; cited from earlier work
Text: Importantly, compared with other anti‐proteolytic peptides containing unnatural amino acids, R7I was completely composed of natural amino acids and had dramatic resistance to a high concentration of protease hyd ...

Escherichia coli 25922 = assay: MIC against E. coli 25922 after incubation of the peptide with mouse serum, gastric juice, small intestinal juice or PBS; format: cell-based; details: for MIC after incubation with gastric juice (GAJ), 1h: mouse gastric juice (stomach tissue + PBS pH 2.0, w/w 1:1, supernatant) mixed with peptide v/v 1:1, peptide 1.28 mM, MIC = lowest concentration killing >95% of cells; for MIC after incubation with serum, 1h / MIC after incubation with serum, 4h / MIC after incubation with serum, 8h: mouse serum mixed with peptide v/v 4:1, 1.28 mM; for Effect of the serum environment on antimicrobial activity: mouse serum, 1-8 h incubation, read-out MIC vs E. coli 25922; for MIC after incubation with small intestinal juice (SIJ), 1h: mouse small intestine contents + PBS pH 7.0 (w/w 1:9, supernatant) mixed with peptide v/v 1:1, 1.28 mM; for MIC after incubation in PBS2.0, 1h / MIC after incubation in PBS2.0, 4h / MIC after incubation in PBS2.0, 8h: phosphate-buffered saline pH 2.0, 37°C; for MIC after incubation in PBS7.0, 1h / MIC after incubation in PBS7.0, 4h / MIC after incubation in PBS7.0, 8h: phosphate-buffered saline pH 7.0, 37°C
Method: FIGURE 2 (a) Schematic diagram of the experimental scheme. Red and green arrows indicate the number of oral administrations and corresponding time points, respectively. (b) The experimental group design. (c) R7I MIC changes after incubation with serum, gastric juice, and small intestine fluid against Escherichia coli 25922. Minimum inhibitory concentrations (MICs, μM) were determined as the lowest peptide concentrations that killed greater than 95% of the bacterial cells. A value >64 indicates no detectable antibacterial activity at 64 μM. GAJ, gastric juice; SIJ, small intestinal juice; PBS2.0 and PBS7.0, phosphate‐buffered saline (pH = 2.0 or pH = 7.0); E. coli, Escherichia coli 25922 TEXT PRINTED IN THE PICTURE: (c) R7I + GAJ + E. coli: 1h: 2; 4h: 2; 8h: 2 | (c) R7I + SIJ + E. coli: 1h: 2; 4h: 4; 8h: 4 | (c) R7I + Serum + E. coli: 1h: 2; 4h: 2; 8h: 2 | (c) Melittin + GAJ + E. coli: 1h: >64; 4h: >64; 8h: >64 | (c) Melittin + SIJ + E. coli: 1h: >64; 4h: >64; 8h: >64 | (c) Melittin + Serum + E. coli: 1h: 4; 4h: 8; 8h: 8 | (c) R7I + PBS2.0 + E. coli: 1h: 2; 4h: 2; 8h: 2 | (c) R7I + PBS7.0 + E. coli: 1h: 2; 4h: 2; 8h: 2 | (c) Melittin + PBS2.0 + E. coli: 1h: 2; 4h: 2; 8h: 2 | (c) Melittin + PBS7.0 + E. coli: 1h: 2; 4h: 2; 8h: 2
The C57BL/6 male mice aged 6 weeks were provided by Liaoning Changsheng Biotechnology Co., Ltd., China and euthanized at 10:00 am. The serum was collected and mixed with R7I (v/v = 4:1) to give a final peptide concentration of 1.28 mM. The stomach (cut in half) and the contents of the entire small intestine of the mice were collected and placed in a sterile eppendorf tube. Sterile PBS was added to gastric tissue (w/w = 1:1, pH = 2.0) and small intestine contents (w/w = 1:9, pH = 7.0), and mixed thoroughly by shaking. The mixture was centrifuged to obtain the supernatant as gastric juice and small intestine juice. R7I was dissolved with the corresponding pH PBS. The prepared gastric and small intestine fluids were then mixed separately with R7I (v/v = 1:1) to give a final peptide concentration of 1.28 mM. Melittin was used here as a control. The peptide mixture was incubated in a 37°C incubator for 1, 4 and 8 h. Finally, the minimum inhibitory concentrations (MICs) test was performed to verify peptide activity with Escherichia coli 25922.[18]

[2] = test system: pepsin, trypsin, chymotrypsin, and proteinase K; details: in vitro; cited from earlier work
[3] = test system: E. coli ATCC 25922 bacterial enteritis model in mice; assay: Bacterial enteritis model: serum D-lactic acid, diamine oxidase, SIgA (ELISA); format: in vivo, C57BL/6 male mice; details: n = 6
Method: C57BL/6 male mice that were 6 weeks old were provided by Liaoning Changsheng Biotechnology Co., Ltd., China. All mice (20.00 ± 2.00 g, 6 weeks old) were randomly divided into 6 groups (n = 12), and they were fed adaptively for 3 days. During the whole experiment, mice can get clean water and a laboratory standard diet ad libitum, under controlled environmental conditions (40%–60% relative humidity, 25 ± 2°C temperature; lighting cycle, 12 h/d). The standard lab diet contained 18% crude protein, 4% crude fat, 5% crude fiber, 8% ash, and 10% moisture.
(§1) The mice were divided into six groups randomly: (1) the control group (E. coli + normal saline); the administration group (E. coli + R7I) is set to three concentration gradients: (2) 20 mg/kg, (3) 30 mg/kg, and (4) 40 mg/kg of body weight; (5) the antibiotic group (E. coli + colistin sulfate), 20 mg/kg of body weight; and (6) the blank group with only normal saline (Figure 2b).
Based on the results of the pre‐experiment, we determined the appropriate concentration of the bacteria. The strain E. coli ATCC 25922 frozen at −20°C was incubated overnight in LB medium (37°C, 220r). The bacterial broth was transferred to a new LB medium at a ratio of 1:100 for 3–5 h to reach the logarithmic growth period. The bacterial precipitate was centrifuged and washed three times with saline to adjust the colony count to 2.0 × 10^9 CFU/ml.
(§2) The blank group was gavaged with 200 μl of saline, and all other groups were gavaged twice with E. coli ATCC 25922 (200 μl) once a day (d1‐2). R7I at different concentrations and colistin sulfate were given twice (12 h intervals) on the d3 and once on d4‐5 by oral administration. Correspondingly, an equal amount of saline was given to the blank and control groups in the same way. On day 6, all mice were euthanized by cervical dislocation under full anesthesia with isoflurane.
To detect the content of diamine oxidase (DAO), D‐lactic acid, and secretory immunoglobulin A (SlgA) in serum, using mouse ELISA kit instruction (Alphabio, Tianjin, China).

[4] = test system: E. coli ATCC 25922 bacterial enteritis model in mice; assay: Bacterial enteritis model: serum biochemical indices; format: in vivo, C57BL/6 male mice; details: other doses of R7I (30, 40 mg/kg) and colistin sulfate 20 mg/kg, oral
Method: as §1, §2
Serum biochemical indices of alanine aminotransferase (ALT), aspartate aminotransferase (AST), alkaline phosphatase (ALP), total bilirubin (TBIL), cholinesterase (CHE), creatinine (CREA), creatine kinase (CK), urea nitrogen (BUN), lactate dehydrogenase (LDH), total protein (TP), albumin (ALB), and globulin (GLB) were measured by the automatic biochemical analyzer (Roche, Cobus‐Mira‐Plus, Roche Diagnostic System Inc., Basel, Switzerland).

[5] = test system: E. coli ATCC 25922 bacterial enteritis model in mice; assay: Bacterial enteritis model: antioxidant function of the liver; format: in vivo, C57BL/6 male mice; details: oral R7I (20, 30, 40 mg/kg) or colistin sulfate 20 mg/kg; vs control group; n = 6
Method: as §1, §2
Total antioxidant capacity (T‐AOC), superoxide dismutase (SOD), glutathione peroxidase (GSH‐Px), malondialdehyde (MDA), and catalase (CAT) enzyme activities in the liver were determined using commercially available kits (Nanjing Jiancheng Bioengineering Institute, Nanjing, China) according to the manufacturer's instructions.

[6] = mouse gastric juice (PBS pH 2.0, w/w 1:1) mixed with peptide v/v 1:1, 1.28 mM, 37°C, 4 h, then MIC vs E. coli 25922
[7] = 37°C, then MIC vs E. coli 25922
[8] = 37°C, 4 h, then MIC vs E. coli 25922
[9] = 37°C, 8 h, then MIC vs E. coli 25922
[10] = mouse small intestine contents + PBS pH 7.0 (w/w 1:9) mixed with peptide v/v 1:1, 1.28 mM, 37°C, 8 h, then MIC vs E. coli 25922
[11] = oral R7I 20, 30, 40 mg/kg or colistin sulfate 20 mg/kg, vs control group, p < 0.05 in most treatment groups, best in 20 mg/kg R7I

Compound	MIC after incubation with gastric juice (GAJ), 4h (Escherichia coli 25922; [6]) [µM]	MIC after incubation with gastric juice (GAJ), 1h (Escherichia coli 25922; [7]) [µM]	MIC after incubation with serum, 1h (Escherichia coli 25922; [7]) [µM]	MIC after incubation with serum, 4h (Escherichia coli 25922; [8]) [µM]	MIC after incubation with serum, 8h (Escherichia coli 25922; [9]) [µM]	Effect of the serum environment on antimicrobial activity (Escherichia coli 25922; 37°C)	MIC after incubation with small intestinal juice (SIJ), 8h (Escherichia coli 25922; [10]) [µM]	MIC after incubation with small intestinal juice (SIJ), 1h (Escherichia coli 25922; [7]) [µM]	MIC after incubation in PBS2.0, 1h (Escherichia coli 25922; then MIC vs E. coli 25922) [µM]	MIC after incubation in PBS2.0, 4h (Escherichia coli 25922; 4 h, then MIC vs E. coli 25922) [µM]	MIC after incubation in PBS2.0, 8h (Escherichia coli 25922; 8 h, then MIC vs E. coli 25922) [µM]	MIC after incubation in PBS7.0, 1h (Escherichia coli 25922; then MIC vs E. coli 25922) [µM]	MIC after incubation in PBS7.0, 4h (Escherichia coli 25922; 4 h, then MIC vs E. coli 25922) [µM]	MIC after incubation in PBS7.0, 8h (Escherichia coli 25922; 8 h, then MIC vs E. coli 25922) [µM]	other results
IRPIIRPIIRPIIRPIIRPIIRPIIRPI-NH2 [R7I]	2	2	2	2	2	no negative effect	4	2	2	2	2	2	2	2	Cytotoxicity [1]: low cytotoxicity; Resistance to pepsin, trypsin, chymotrypsin, and proteinase K [2]: excellent resistance
colistin sulfate															Serum D-lactic acid (DLA) level [3, 11]: significantly decreased; Serum diamine oxidase (DAO) level [3, 11]: significantly decreased; Serum secreted immunoglobulin A (SlgA) level vs control group ([3]; partial dose concentrations, oral): raise secreted immunoglobulin A (SlgA) levels compared to the control group, without statistical significance; Serum CREA level [4]: little effect (or even an increasing trend); Serum LDH level [4]: little effect (or even an increasing trend); Serum AST level ([4]; p < 0.05): decrease; Serum TBIL level ([4]; p < 0.05): decrease; Serum ALT level ([4]; p > 0.05): decrease; MDA levels in the liver [5]: significantly dropped
CC[C@H](C)[C@H](NC(=O)CN)C(=O)NCC(=O)N[C@@H](C)C(=O)N[C@H](C(=O)N[C@@H](CC(C)C)C(=O)N[C@@H](CCCCN)C(=O)N[C@H](C(=O)N[C@@H](CC(C)C)C(=O)N[C@H](C(=O)N[C@H](C(=O)NCC(=O)N[C@@H](CC(C)C)C(=O)N1CCC[C@H]1C(=O)N[C@@H](C)C(=O)N[C@@H](CC(C)C)C(=O)N[C@H](C(=O)N[C@@H](CO)C(=O)N[C@@H](Cc1c[nH]c2ccccc12)C(=O)N[C@H](C(=O)N[C@@H](CCCCN)C(=O)N[C@@H](CCCNC(=N)N)C(=O)N[C@@H](CCCCN)C(=O)N[C@@H](CCCNC(=N)N)C(=O)N[C@@H](CCC(N)=O)C(=O)N[C@@H](CCC(N)=O)C(N)=O)[C@@H](C)CC)[C@@H](C)CC)[C@@H](C)O)[C@@H](C)O)C(C)C)C(C)C [Melittin]	> 64	> 64	4	8	8	slightly compromised	> 64	> 64	2 (≈ 5.69 µg/mL)	2 (≈ 5.69 µg/mL)	2 (≈ 5.69 µg/mL)	2 (≈ 5.69 µg/mL)	2 (≈ 5.69 µg/mL)	2 (≈ 5.69 µg/mL)	MIC after incubation with gastric juice (GAJ), 8h (Escherichia coli 25922; mouse gastric juice (PBS pH 2.0, w/w 1:1) mixed with peptide v/v 1:1, 1.28 mM, 37°C, 8 h, then MIC vs E. coli 25922): > 64 µM; MIC after incubation with small intestinal juice (SIJ), 4h (Escherichia coli 25922; mouse small intestine contents + PBS pH 7.0 (w/w 1:9) mixed with peptide v/v 1:1, 1.28 mM, 37°C, 4 h, then MIC vs E. coli 25922): > 64 µM; Activity after incubation with small intestinal fluid for 1 min (Escherichia coli 25922; small intestinal fluid, 1 min, unused data): inactivated
